Biological target: V1 receptor (Rattus norvegicus, UniProt P30560)
Assay: biochemical
Assay type: binding
Protocol: Experiment 1: V1 receptor binding assay
Using rat liver plasma membrane preparations prepared according to Ichihara's method [cf: Akira Ichihara, J. Bio. Chem., 258 9283 (1983)], the plasma membrane (50000 dpm, 2×10^-10 M) of [H]^3 -Arg-vasopressin and a test compound (100 ng, 10^-7 -10^-4 M) are incubated at 37° C. for 10 minutes in 100 mM Tris-HCl buffer pH: 8.0 (250 μl) containing 5 mM MgCl2, 1 mM EDTA and 0.1% BSA. After incubation, the mixture is filtered three times using the glass filter (GF/F) so as to separate the membrane preparation combining with vasopressin and then washed with the buffer (5 ml). This glass filter is taken out and mixed with liquid scintillation cocktail. The amount of [H]^3 -vasopressin combining with the membrane is measured by liquid scintillation counter and the rate of the inhibitory effect of the test compound is estimated according to the following equation. [formula] C^1 : The amount of [H]^3 -vasopressin combining with the membrane in the presence of the test compound (known amount).
C^0 : The amount of [H]^3 -vasopressin combining with the membrane in the absence of the test compound.
B^1 : The amount of [H]^3 -vasopressin combining with the membrane in the presence of the excess amount of vasopressin (10^-6 M).

V1 receptor, sequence (P30560 whole entry): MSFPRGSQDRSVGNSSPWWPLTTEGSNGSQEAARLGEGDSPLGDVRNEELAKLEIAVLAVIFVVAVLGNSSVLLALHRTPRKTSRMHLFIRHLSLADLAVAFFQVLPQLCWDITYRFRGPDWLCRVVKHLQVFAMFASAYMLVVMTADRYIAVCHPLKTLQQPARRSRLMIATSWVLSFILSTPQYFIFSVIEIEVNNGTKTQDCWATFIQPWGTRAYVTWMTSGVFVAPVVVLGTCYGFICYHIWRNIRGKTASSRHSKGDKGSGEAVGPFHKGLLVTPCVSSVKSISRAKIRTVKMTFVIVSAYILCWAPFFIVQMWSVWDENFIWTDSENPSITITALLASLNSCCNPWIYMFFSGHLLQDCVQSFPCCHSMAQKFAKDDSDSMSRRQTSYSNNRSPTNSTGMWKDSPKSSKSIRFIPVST

| Structure (SMILES) | IC50 |
| --- | --- |
| O=C(c1ccc(OCCCCCN2CCCCC2CO)cc1)N1CCC(N2C(=O)CCc3ccccc32)CC1 (centres unmarked) [Example 241, 1-{1-(4-[5-(2-Hydroxymethyl-1-piperidinyl)pentyloxy]benzoyl)-4-piperidinyl}-3,4-dihydrocarbostyril] | 21 nM |
| CC1CCN(CCCCCOc2ccc(C(=O)N3CCC(N4C(=O)CCc5ccccc54)CC3)cc2)CC1 [Example 242, 1-{1-(4-[5-(4-Methyl-1-piperidinyl)pentyloxy]benzoyl)-4-piperidinyl}-3,4-dihydrocarbostyril] | 59 nM |
| O=C(c1ccc(OCCCCCCN2CCCCC2)cc1)N1CCC(N2C(=O)CCc3ccccc32)CC1 [Example 243, 1-{1-(4-[6-(1-Piperidinyl)hexyloxy]benzoyl)-4-piperidinyl}-3,4-dihydrocarbostyril] | 39 nM |
| CN(CCO)CCCCCOc1ccc(C(=O)N2CCC(N3C(=O)CCc4ccccc43)CC2)cc1 [Example 244, 1-{1-(4-[5-(N-(2-Hydroxyethyl)-N-methylamino)pentyloxy]benzoyl)-4-piperidinyl}-3,4-dihydrocarbostyril] | 34 nM |
| C=CCN(C)CCCCCOc1ccc(C(=O)N2CCC(N3C(=O)CCc4ccccc43)CC2)cc1 [Example 245, 1-{1-(4-[5-(N-Allyl-N-methylamino)pentyloxy]benzoyl)-4-piperidinyl}-3,4-dihydrocarbostyril] | 54 nM |
| C=CC[N+](C)([O-])CCCCCOc1ccc(C(=O)N2CCC(N3C(=O)CCc4ccccc43)CC2)cc1 (centres unmarked) [Example 246, N-{5-[4-(4-(3,4-Dihydrocarbostyril-1-yl)-1-piperidinylcarbonyl)phenoxy]pentyl}, N-methyl, N-allylamine oxide] | 290 nM |
| CN(CCC#N)CCCCCOc1ccc(C(=O)N2CCC(N3C(=O)CCc4ccccc43)CC2)cc1 [Example 247, 1-{1-(4-[5-(N-(2-Cyanoethyl)-N-methylamino)pentyloxy]benzoyl)-4-piperidinyl}-3,4-dihydrocarbostyril] | 170 nM |
| CN(C)CCN(CCCCCOc1ccc(C(=O)N2CCC(N3C(=O)CCc4ccccc43)CC2)cc1)Cc1ccccc1 [Example 248, 1-{1-(4-[5-(N-(2-Dimethylaminoethyl)-N-benzylamino)pentyloxy]benzoyl)-4-piperidinyl}-3,4-dihydrocarbostyril] | 34 nM |
| CC(=O)OCCN(CCCCCOc1ccc(C(=O)N2CCC(N3C(=O)CCc4ccccc43)CC2)cc1)CCOC(C)=O [Example 249, 1-{1-(4-[5-(N,N-Di(2-acetoxyethyl)amino)pentyloxy]benzoyl)-4-piperidinyl}-3,4-dihydrocarbostyril] | 45 nM |
| O=C(CCCNC(=O)OCc1ccccc1)NCCCCCOc1ccc(C(=O)N2CCC(N3C(=O)CCc4ccccc43)CC2)cc1 [Example 250, 1-{1-(4-[5-(4-Benzyloxycarbonylaminobutyrylamino)pentyloxy]benzoyl)-4-piperidinyl}-3,4-dihydrocarbostyril] | 320 nM |
| C=CCNCC(=O)NCCCCCOc1ccc(C(=O)N2CCC(N3C(=O)CCc4ccccc43)CC2)cc1 [Example 251] | 98 nM |
| O=C(CN1CCCC1)NCCCCCOc1ccc(C(=O)N2CCC(N3C(=O)CCc4ccccc43)CC2)cc1 [Example 252, 1-{1-(4-[5-(2-(1-Pyrrolidinyl)acetylamino)pentyloxy]benzoyl)-4-piperidinyl}-3,4-dihydrocarbostyril] | 86 nM |
| O=C(CN1CCOCC1)NCCCCCOc1ccc(C(=O)N2CCC(N3C(=O)CCc4ccccc43)CC2)cc1 [Example 253, 1-{1-(4-[5-(2-Morpholinoacetylamino)pentyloxy]benzoyl)-4-piperidinyl}-3,4-dihydrocarbostyril] | 180 nM |
| CN1CCN(CC(=O)NCCCCCOc2ccc(C(=O)N3CCC(N4C(=O)CCc5ccccc54)CC3)cc2)CC1 [Example 254, 1-{1-(4-[5-(2-(4-Methyl-1-piperazinyl)acetylamino)pentyloxy]benzoyl)-4-piperidinyl}-3,4-dihydrocarbostyril] | 60 nM |
| O=C(CN1CCN(c2ccccc2)CC1)NCCCCCOc1ccc(C(=O)N2CCC(N3C(=O)CCc4ccccc43)CC2)cc1 [Example 255, 1-{1-(4-[5-(2-(4-Phenyl-1-piperazinyl)acetylamino)pentyloxy]benzoyl)-4-piperidinyl}-3,4-dihydrocarbostyril] | 380 nM |
| O=C(CNCc1ccccc1)NCCCCCOc1ccc(C(=O)N2CCC(N3C(=O)CCc4ccccc43)CC2)cc1 [Example 256, 1-{1-(4-[5-(2-Benzylaminoacetylamino)pentyloxy]benzoyl)-4-piperidinyl}-3,4-dihydrocarbostyril] | 190 nM |
| CN(CCO)CC(=O)NCCCCCOc1ccc(C(=O)N2CCC(N3C(=O)CCc4ccccc43)CC2)cc1 [Example 257, 1-{1-(4-[5-(2-(N-(2-Hydroxyethyl)-N-methylamino)acetylamino)pentyloxy]benzoyl)-4-piperidinyl}-3,4-dihydrocarbostyril] | 200 nM |
| CN(C)c1ccc(S(=O)(=O)NCCCCCOc2ccc(C(=O)N3CCC(N4C(=O)CCc5ccccc54)CC3)cc2)cc1 [Example 258, 1-{1-(4-[5-(4-Dimethylaminophenylsulfonylamino)pentyloxy]benzoyl)-4-piperidinyl]-3,4-dihydrocarbostyril] | 470 nM |
| CC(=O)Nc1ccc(C(=O)NCCCCCOc2ccc(C(=O)N3CCC(N4C(=O)CCc5ccccc54)CC3)cc2)cc1 [Example 259, 1-{1-(4-[5-(4-Acetylaminobenzoyl)aminopentyloxy]benzoyl)-4-piperidinyl}-3,4'-dihydrocarbostyril] | 110 nM |
| O=C(NCCCCCOc1ccc(C(=O)N2CCC(N3C(=O)CCc4ccccc43)CC2)cc1)C1CCC(O)C(O)C1 (centres unmarked) [Example 260] | 150 nM |
| CC(=O)OC1CCC(C(=O)NCCCCCOc2ccc(C(=O)N3CCC(N4C(=O)CCc5ccccc54)CC3)cc2)CC1OC(C)=O (centres unmarked) [Example 261, 1-{1-(4-[5-(3,4-Diacetoxycyclohexylcarbonyl)aminopentyloxy]benzoyl)-4-piperidinyl}-3,4-dihydrocarbostyril] | 120 nM |
| Nc1ccc(C(=O)NCCCCCOc2ccc(C(=O)N3CCC(N4C(=O)CCc5ccccc54)CC3)cc2)cc1 [Example 262, 1-{1-(4-[5-(4-Aminobenzoyl)aminopentyloxy]benzoyl)-4-piperidinyl}-3,4-dihydrocarbostyril] | 93 nM |
| O=C(c1ccc(OCCCCCNS(=O)(=O)c2ccc([N+](=O)[O-])cc2)cc1)N1CCC(N2C(=O)CCc3ccccc32)CC1 [Example 263, 1-{1-(4-[5-(4-Nitrophenylsulfonyl)aminopentyloxy]benzoyl)-4-piperidinyl}-3,4-dihydrocarbostyril] | 360 nM |
| Nc1ccc(S(=O)(=O)NCCCCCOc2ccc(C(=O)N3CCC(N4C(=O)CCc5ccccc54)CC3)cc2)cc1 [Example 264, 1-{1-(4-[5-(4-Aminophenylsulfonyl)aminopentyloxy]benzoyl)-4-piperidinyl}-3,4-dihydrocarbostyril] | 160 nM |
| O=C(c1ccc(OCCCCCCN2CCC(N3CCCCC3)CC2)cc1)N1CCC(N2C(=O)CCc3ccccc32)CC1 [Example 265, 1-(1-(4-[6-(4-(1-Piperidinyl)-1-piperidinyl)hexyloxy]benzoyl)-4-piperidinyl}-3,4-dihydrocarbostyril.dioxalate] | 19 nM |
| CN(CCCCCCOc1ccc(C(=O)N2CCC(N3C(=O)CCc4ccccc43)CC2)cc1)CCc1ccccn1 [Example 266, 1-{1-(4-[6-(N-(2-(2-Pyridyl)ethyl)-N-methylamino)hexyloxy]benzoyl)-4-piperidinyl}-3,4-dihydrocarbostyril] | 35 nM |
